These are literature values, as cited in US20140081110A1, “ELECTROPHYSIOLOGICAL DIAGNOSIS AND TREATMENT FOR ASTHMA” (University of Liverpool, priority 2011, published 2014).

This series has as its system normal airway. As to conditions: UK guidance on asthma (British Guideline on the Management of Asthma, Revised January 2012).

Some results are limits rather than exact numbers.

Take `CC(=O)OC(C)C[N+](C)(C)C` (stereo not shown) [methacholine]: the “methacholine dose required to reduce the Forced Expiratory Volume in 1 Second (FEV1) by 20%” value was > 8 mg/mL.
